According to ChEMBL document CHEMBL1201862, “PubChem BioAssay data set” (2004):
“And” between values parts separate entries of the source, which are not always exact repeats. Equal entries are not always repeated. The source made the active and inactive calls.

Assays:
[1] = target: C-X-C chemokine receptor type 4 (Homo sapiens, UniProt P61073); test: SAR analysis of small molecule antagonists of the CXCR6 receptor using a CXCR4 receptor luminescent beta-arrestin counterscreen.; type: functional
Chain of C-X-C chemokine receptor type 4 (P61073 whole entry): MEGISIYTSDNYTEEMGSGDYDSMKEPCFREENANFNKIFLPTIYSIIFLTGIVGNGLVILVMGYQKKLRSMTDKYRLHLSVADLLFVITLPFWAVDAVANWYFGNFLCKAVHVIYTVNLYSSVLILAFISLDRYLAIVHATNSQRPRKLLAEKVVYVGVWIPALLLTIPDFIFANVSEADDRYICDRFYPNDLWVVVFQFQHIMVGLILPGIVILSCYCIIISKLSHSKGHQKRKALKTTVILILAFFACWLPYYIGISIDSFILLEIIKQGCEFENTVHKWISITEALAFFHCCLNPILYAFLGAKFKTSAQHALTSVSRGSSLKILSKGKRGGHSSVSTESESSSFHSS

[2] = target: C-C chemokine receptor type 6 (Homo sapiens, UniProt P51684); test: SAR analysis of small molecule antagonists of the CXCR6 receptor using a CCR6 receptor luminescent beta-arrestin counterscreen.; type: functional
Chain of C-C chemokine receptor type 6 (P51684 whole entry): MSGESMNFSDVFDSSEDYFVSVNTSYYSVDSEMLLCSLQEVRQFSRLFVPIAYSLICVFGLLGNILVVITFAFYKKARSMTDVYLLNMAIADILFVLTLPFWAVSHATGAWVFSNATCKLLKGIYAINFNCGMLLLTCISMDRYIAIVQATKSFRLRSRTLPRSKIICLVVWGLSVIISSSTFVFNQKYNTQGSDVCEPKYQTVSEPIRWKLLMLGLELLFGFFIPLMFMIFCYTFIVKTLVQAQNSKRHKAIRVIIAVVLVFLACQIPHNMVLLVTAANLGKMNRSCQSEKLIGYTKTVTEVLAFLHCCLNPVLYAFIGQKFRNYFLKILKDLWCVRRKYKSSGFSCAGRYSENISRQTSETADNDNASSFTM

[3] = target: Mitogen-activated protein kinase 10 (Homo sapiens, UniProt P53779); test: Dose response biochemical screening assay for inhibitors of c-Jun N-Terminal Kinase 3 (JNK3). [Related pubchem assays: 746 ]
Chain of Mitogen-activated protein kinase 10 (P53779 whole entry): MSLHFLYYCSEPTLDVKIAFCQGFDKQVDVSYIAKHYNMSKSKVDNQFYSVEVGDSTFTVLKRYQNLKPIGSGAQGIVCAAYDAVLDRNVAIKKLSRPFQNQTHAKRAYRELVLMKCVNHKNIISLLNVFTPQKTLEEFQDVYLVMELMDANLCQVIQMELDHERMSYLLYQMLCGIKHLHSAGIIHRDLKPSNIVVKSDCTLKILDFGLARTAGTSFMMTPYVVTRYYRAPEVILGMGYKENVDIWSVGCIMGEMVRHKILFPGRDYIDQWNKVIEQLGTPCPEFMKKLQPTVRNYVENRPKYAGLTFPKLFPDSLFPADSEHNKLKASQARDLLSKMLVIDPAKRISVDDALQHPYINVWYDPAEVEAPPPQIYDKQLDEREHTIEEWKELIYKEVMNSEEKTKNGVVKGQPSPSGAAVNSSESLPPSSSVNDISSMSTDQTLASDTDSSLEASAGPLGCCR

[4] = DRD fibroblast viability loss – cell-based, non-viral oncogenic, luminescence, dose response (AID 1934); type: functional; conditions: Homo sapiens
[5] = test system: BJ; test: BJ-TERT fibroblast viability loss – cell-based, RAS-independent, luminescence, dose response (AID 1933); type: functional; conditions: Homo sapiens
[6] = test system: BJ; test: cells; type: functional, cell-based; conditions: Homo sapiens
[7] = test system: BJ; test: BJ-TERT-LT-ST fibroblast viability loss – cell-based, RAS-independent, luminescence, dose response (AID 1935); type: functional; conditions: Homo sapiens;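 further: BJ fibroblasts immortalized with TERT plus LT and ST oncogenes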
[8] = target: RNA-editing ligase 1, mitochondrial (Trypanosoma brucei brucei, UniProt P86926); test: inhibition of trypanosome RNA editing ligase – biochemical, fluorescence, Trypanosoma brucei, dose response (AID 1117295); type: functional
Chain of RNA-editing ligase 1, mitochondrial (P86926 whole entry): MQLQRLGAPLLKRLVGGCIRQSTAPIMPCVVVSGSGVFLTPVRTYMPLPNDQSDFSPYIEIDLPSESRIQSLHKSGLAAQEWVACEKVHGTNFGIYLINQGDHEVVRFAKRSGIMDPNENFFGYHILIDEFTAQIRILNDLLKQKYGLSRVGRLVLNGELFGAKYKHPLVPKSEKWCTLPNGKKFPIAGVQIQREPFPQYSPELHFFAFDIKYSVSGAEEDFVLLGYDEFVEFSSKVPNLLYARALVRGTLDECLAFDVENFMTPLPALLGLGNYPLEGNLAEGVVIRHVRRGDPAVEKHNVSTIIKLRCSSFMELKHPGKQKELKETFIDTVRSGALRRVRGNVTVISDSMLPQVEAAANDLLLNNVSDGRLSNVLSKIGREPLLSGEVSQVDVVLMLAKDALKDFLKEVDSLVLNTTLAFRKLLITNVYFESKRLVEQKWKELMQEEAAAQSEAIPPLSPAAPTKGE

[9] = HEK-293T viability loss after treatment – luminescence, T-cell screen hits, cytotoxicity control for TCR NF-kB inhibitor project, dose response (AID 489026); type: functional, cell-based;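 further: cells exposed to compound about 14 hours before the viability readout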
[10] = reduction of Shn3 3'UTR-driven luciferase in osteoblasts – cell-based, Clone20 osteoblasts, firefly luciferase, cherry-picked, dose response (AID 624132); type: functional;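 further: firefly luciferase luminescence from reporter carrying the Shn3 3'UTR in osteoblasts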
[11] = cells; type: functional, cell-based; conditions: HEK-CNG
[12] = target: COUP transcription factor 2 (Homo sapiens, UniProt P24468); test: Luminescence-based cell-based high throughput dose response assay to identify inhibitors of COUP-TFII (NR2F2).; type: functional;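 further: HEK293 cells transiently cotransfected with COUP-TFII expression vector and reporter; luciferase reporter luminescence driven by COUP-TFII from the pX2-168 reporter plasmid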
Chain of COUP transcription factor 2 (P24468 whole entry): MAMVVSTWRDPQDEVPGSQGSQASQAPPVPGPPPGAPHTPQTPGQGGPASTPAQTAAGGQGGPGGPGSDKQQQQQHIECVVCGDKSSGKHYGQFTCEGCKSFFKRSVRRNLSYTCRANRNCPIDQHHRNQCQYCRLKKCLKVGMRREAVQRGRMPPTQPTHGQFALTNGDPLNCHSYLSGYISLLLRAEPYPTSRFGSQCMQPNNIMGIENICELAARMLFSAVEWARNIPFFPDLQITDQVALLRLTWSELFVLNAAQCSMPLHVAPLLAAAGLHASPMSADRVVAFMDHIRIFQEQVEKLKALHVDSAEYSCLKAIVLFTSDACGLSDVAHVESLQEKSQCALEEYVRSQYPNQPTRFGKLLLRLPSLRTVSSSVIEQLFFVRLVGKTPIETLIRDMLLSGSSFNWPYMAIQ

[13] = fluconazole-exposed Candida albicans growth modulators – fluorescence, retest, confirmation (AID 2467); type: functional, cell-based
[14] = NIH-3T3 fibroblast cytotoxicity, dose response, cytotoxicity control, cell-based, fluorescence, Alamar Blue, secondary assay (AID 2327); type: functional;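 further: NIH-3T3 mouse fibroblasts cultured with fluconazole at 8 µg/mL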
[15] = loss of viability in HepG2 cells – cell-based, CellTiter-Glo, cherry-picked, cytotoxicity control for Shn3 inhibitor project, dose response (AID 624134); type: functional
[16] = target: Galanin receptor type 3 (Homo sapiens, UniProt O60755); test: Fluorescence-based cell-based primary high throughput dose response assay to identify antagonists of the Galanin Receptor 3 (GalR3).; type: functional
Chain of Galanin receptor type 3 (O60755 whole entry): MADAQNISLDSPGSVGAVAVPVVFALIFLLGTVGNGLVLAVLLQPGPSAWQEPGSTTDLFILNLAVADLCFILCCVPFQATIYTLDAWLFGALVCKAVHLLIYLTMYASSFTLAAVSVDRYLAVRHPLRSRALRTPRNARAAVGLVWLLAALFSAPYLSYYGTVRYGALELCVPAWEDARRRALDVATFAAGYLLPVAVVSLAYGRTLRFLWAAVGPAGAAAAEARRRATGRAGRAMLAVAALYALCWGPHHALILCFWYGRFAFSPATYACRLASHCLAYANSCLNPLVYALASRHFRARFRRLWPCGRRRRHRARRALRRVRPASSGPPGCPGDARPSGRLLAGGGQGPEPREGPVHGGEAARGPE

[17] = target: T1, Serine/threonine-protein phosphatase (Candida dubliniensis (strain CD36 / CBS 7987 / NCPF 3949 / NRRLY-17841) (Yeast), UniProt B9W6M3); test: blockers of CaCl2-induced CDRE-lacZ signaling – S. cerevisiae, luminescence, secondary, dose response (AID 2388); type: functional, cell-based;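 further: yeast reporter cells carrying a calcineurin-responsive lacZ construct stimulated with calcium chloride; luminescent beta-galactosidase reporter signal in whole cells rather than isolated phosphatase activity; potency for inhibition where a drop in reporter signal means calcineurin blockade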
T1 sequence (B9W6M3 whole entry): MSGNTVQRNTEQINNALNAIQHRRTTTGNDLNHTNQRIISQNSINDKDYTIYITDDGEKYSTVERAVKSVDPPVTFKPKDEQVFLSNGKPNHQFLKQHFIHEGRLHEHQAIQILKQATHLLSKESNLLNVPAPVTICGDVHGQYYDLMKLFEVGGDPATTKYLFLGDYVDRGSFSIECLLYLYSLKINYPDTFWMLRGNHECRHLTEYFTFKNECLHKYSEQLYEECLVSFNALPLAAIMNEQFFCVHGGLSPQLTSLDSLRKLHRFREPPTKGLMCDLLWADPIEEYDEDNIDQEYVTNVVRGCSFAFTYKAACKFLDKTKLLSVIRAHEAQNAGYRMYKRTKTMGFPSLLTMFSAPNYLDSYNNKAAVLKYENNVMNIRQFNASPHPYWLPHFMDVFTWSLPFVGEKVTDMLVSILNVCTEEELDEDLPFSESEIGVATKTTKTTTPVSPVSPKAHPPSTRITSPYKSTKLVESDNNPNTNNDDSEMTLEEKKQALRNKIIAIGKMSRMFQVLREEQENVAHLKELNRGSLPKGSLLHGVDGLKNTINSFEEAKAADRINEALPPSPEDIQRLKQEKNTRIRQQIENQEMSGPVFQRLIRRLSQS

[18] = non-specific 3'UTR reporter inhibition in Clone20-Shn3RL – cell-based, Renilla luciferase, cherry-picked, counter-screen for Shn3 inhibitor project, dose response (AID 624133); type: functional
[19] = test system: INS1; test: INS-1E survival protection against cytokine death – cell-based, luminescence, retest, dose response (AID 449756); type: functional; conditions: Rattus norvegicus, INS1;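 further: cell death triggered by IL-1 beta plus TNF-alpha plus IFN-gamma mixture; protective hits raise ATP signal compared with cytokine alone wells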
[20] = target: ATP-dependent molecular chaperone HSP82 (Candida albicans (strain WO-1) (Yeast), UniProt C4YTQ8); test: steroid-induced GRE reporter decrease in yeast – S. cerevisiae, luminescence, Hsp90 inhibitor project, dose response (AID 2400); type: functional, cell-based;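 further: beta-galactosidase luminescence from glucocorticoid response element reporter as proxy for Hsp90 function; inhibitor potency where signal loss means Hsp90 inhibition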
Chain of ATP-dependent molecular chaperone HSP82 (C4YTQ8 whole entry): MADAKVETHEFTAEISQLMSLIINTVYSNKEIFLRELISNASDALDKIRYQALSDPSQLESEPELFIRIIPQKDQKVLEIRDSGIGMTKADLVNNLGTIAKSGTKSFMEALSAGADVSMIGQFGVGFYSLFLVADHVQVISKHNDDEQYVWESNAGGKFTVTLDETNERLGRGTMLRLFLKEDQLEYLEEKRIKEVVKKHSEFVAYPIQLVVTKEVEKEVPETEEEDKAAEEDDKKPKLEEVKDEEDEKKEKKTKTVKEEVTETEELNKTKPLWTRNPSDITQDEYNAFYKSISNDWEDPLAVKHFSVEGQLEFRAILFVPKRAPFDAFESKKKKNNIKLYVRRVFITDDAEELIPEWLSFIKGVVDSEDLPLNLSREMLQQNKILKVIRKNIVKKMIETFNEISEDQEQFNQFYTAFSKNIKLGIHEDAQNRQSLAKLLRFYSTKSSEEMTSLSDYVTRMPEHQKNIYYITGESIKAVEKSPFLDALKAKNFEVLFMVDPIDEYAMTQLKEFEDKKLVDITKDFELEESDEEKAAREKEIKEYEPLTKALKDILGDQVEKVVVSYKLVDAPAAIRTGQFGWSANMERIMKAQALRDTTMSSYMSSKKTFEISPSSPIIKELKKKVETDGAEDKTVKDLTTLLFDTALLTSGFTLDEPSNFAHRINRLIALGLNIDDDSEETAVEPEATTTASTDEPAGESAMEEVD

[21] = viability loss in human Jurkat cells – cell-based, luminescence, cytotoxicity control for P. falciparum gametocyte viability project, dose response (AID 1117277); type: functional;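 further: potency reflects loss of cellular ATP meaning fewer viable cells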
[22] = viability inhibitors of stage V gametocytes – luminescence, dose response (AID 1117278); type: functional, cell-based;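 further: gametocytes exposed to compound for 24 hours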
[23] = inhibitors of non-replicating M. tuberculosis, dose response, luciferase, dry powder (AID 651619); type: functional; conditions: Mycobacterium tuberculosis
[24] = inhibitors of non-replicating M. tuberculosis, dose response, luciferase, dry powder (AID 651620); type: functional; conditions: Mycobacterium tuberculosis
[25] = antimalarial activity against Dd2 parasites – SYBR Green fluorescence, erythrocytes, dry powder, set 2, dose response (AID 1159574); type: functional, cell-based
[26] = viability loss in THP-1 monocytes – THP-1 cells, cytotoxicity control for Vif-APOBEC3G degradation inhibitor project, dose response (AID 1117359); type: functional; conditions: THP-1
[27] = target: Glutathione-S-transferase (Schistosoma japonicum, UniProt Q26513); test: GST-antibody interaction or FRET quenching – biochemical, TR-FRET, artefact control for Vif-APOBEC3G degradation inhibitor project, dose response (AID 1117362); type: functional
Chain of Glutathione-S-transferase (Q26513 whole entry): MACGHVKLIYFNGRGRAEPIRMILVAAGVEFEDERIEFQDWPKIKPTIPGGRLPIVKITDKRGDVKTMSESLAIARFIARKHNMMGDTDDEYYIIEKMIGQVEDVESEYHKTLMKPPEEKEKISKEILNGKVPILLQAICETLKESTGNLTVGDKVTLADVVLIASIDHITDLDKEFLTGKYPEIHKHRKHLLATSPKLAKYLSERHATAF

**Q.** Which IC50 [1] does the source give for `COc1cc(C(=O)NC2CC3CCCC(C2)N3CC(=O)Nc2ccccc2Cl)cc(OC)c1OC` (stereo not drawn) here?
**A.** Its IC50 is > 79 µM (inactive) and 60.1 µM (inactive).

**Q.** And the IC50 [2]?
**A.** Its IC50 is > 79 µM (inactive).

**Q.** Which IC50 [3] does the source give for `COc1cccc(C2=NOC(C(=O)Nc3cc(OC)c(OC)c(OC)c3)C2)c1` (stereo not drawn) here?
**A.** Its IC50 is 2.02 µM (active).

**Q.** Which EC50 [4] does the source give for `CC1(C)CC(N2CCN(C(c3ccccc3)c3ccccc3)CC2)=CC(=[N+]2CCCCC2)C1` here?
**A.** Its EC50 is 3.82 µM (active).

**Q.** What about the EC50 [5] of the same molecule?
**A.** Its EC50 is 2.36 µM (active).

**Q.** And the EC50 [6]?
**A.** Its EC50 is 3.77 µM (active).

**Q.** What about the EC50 [7] of the same molecule?
**A.** The EC50 was 3.51 µM (inconclusive).

**Q.** And the IC50 [8]?
**A.** Its IC50 is > 96.6 µM (inactive).

**Q.** And the IC50 [9]?
**A.** The IC50 was > 80 µM (inactive).

**Q.** For `CC(Nc1ncnc2ccccc12)c1ccccc1` (stereo not drawn), which AC50 [10] is on record?
**A.** Its AC50 is 0.355 µM (active).

**Q.** What about the EC50 [11] of the same molecule?
**A.** Its EC50 is > 29.9 µM (inactive).

**Q.** What about the IC50 [12] of the same molecule?
**A.** The IC50 was 2.41 µM (active).

**Q.** What about the EC50 [13] of the same molecule?
**A.** The EC50 was 0.404 µM (active).

**Q.** What about the EC50 [14] of the same molecule?
**A.** The EC50 was > 160 µM (inactive).

**Q.** What about the AC50 [15] of the same molecule?
**A.** Its AC50 is 1.21 µM (active).

**Q.** And the IC50 [9]?
**A.** The IC50 was > 80 µM (inactive).

**Q.** What about the IC50 [16] of the same molecule?
**A.** Its IC50 is 0.128 µM (active).

**Q.** And the EC50 [17]?
**A.** The EC50 was > 180 µM (inactive).

**Q.** And the AC50 [18]?
**A.** The AC50 was 1.14 µM (active).

**Q.** What about the AC50 [19] of the same molecule?
**A.** Its AC50 is 1.98 µM (active).

**Q.** And the EC50 [20]?
**A.** The EC50 was > 160 µM (inactive).

**Q.** With `O=C(Cn1cnc2ccccc2c1=O)Nc1ccc(S(=O)(=O)N2CCOCC2)cc1` as the molecule, how does the IC50 [21] read?
**A.** The IC50 was > 83.3 µM (inactive).

**Q.** What about the IC50 [22] of the same molecule?
**A.** Its IC50 is > 109 µM (inactive).

**Q.** Which IC90 [23] does the source give for `[N-]=[N+]=NCCOCCNC(=O)CCCOc1ccc(C[S+]([O-])c2nnc(-c3ccc(Cl)cc3)o2)nc1` (stereo not drawn) here?
**A.** The IC90 was 8 µM (active).

**Q.** What about the IC90 [24] of the same molecule?
**A.** Its IC90 is 8 µM (active).

**Q.** Which AC50 [25] does the source give for `O=C(c1ccccc1F)N1CC(=O)N2[C@H](C1)[C@H](c1ccc(-c3cccnc3)cc1)[C@@H]2CO` here?
**A.** The AC50 was 19.4 µM (active).

**Q.** What does the source list for `O=C(COC(=O)c1ccccc1OC(F)F)Nc1ccc2[nH]c(O)nc2c1`?
**A.** CC50 [26]: > 40 µM (active); IC50 [27]: > 100 µM (active)
